# Earlier results as cited in paper PMC10531095, “Photonics of Some Monomethine Cyanine Dyes in Solutions and in Complexes with Biomolecules” (International Journal of Molecular Sciences, 2023).
# Tested on: ssDNA
# Design: method as in PMID 15249599
# Conditions: ssDNA vs. dsDNA ref 62; cited from earlier work
structure (smiles),measurement,value
CCCN(CCCN(C)C)c1cc(/C=C2/Sc3ccccc3N2C)c2ccccc2[n+]1-c1ccccc1 [SYBR Green I],"fluorescence increase with ssDNA, times lower than with dsDNA",about 11 times
